{"source": "patent US8497278B2", "about": "“Imidazo[1,2-a]pyridine compounds” (priority 2008, dated 2013)", "data": [{"biological_target": "T1, α1 subtype containing GABA-A receptors (Homo sapiens, UniProt P14867+P18507)", "T1 construct": "expressed in transfected cells; host or cells: Xenopus laevis oocytes, cRNA injected", "T1 sequence (P14867 28-456)": "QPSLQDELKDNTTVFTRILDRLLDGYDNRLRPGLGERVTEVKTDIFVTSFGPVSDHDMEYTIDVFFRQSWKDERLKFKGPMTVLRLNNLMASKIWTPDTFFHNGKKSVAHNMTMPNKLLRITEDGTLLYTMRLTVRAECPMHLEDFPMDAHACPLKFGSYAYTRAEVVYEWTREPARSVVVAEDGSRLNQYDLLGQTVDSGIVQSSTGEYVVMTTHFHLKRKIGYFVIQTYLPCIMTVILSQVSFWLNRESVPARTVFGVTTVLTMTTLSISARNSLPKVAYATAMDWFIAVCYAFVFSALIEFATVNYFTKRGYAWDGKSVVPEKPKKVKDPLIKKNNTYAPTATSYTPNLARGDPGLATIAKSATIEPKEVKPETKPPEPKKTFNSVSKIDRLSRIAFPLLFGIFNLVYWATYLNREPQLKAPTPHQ", "T1 sequence (P28472 26-473 partner)": "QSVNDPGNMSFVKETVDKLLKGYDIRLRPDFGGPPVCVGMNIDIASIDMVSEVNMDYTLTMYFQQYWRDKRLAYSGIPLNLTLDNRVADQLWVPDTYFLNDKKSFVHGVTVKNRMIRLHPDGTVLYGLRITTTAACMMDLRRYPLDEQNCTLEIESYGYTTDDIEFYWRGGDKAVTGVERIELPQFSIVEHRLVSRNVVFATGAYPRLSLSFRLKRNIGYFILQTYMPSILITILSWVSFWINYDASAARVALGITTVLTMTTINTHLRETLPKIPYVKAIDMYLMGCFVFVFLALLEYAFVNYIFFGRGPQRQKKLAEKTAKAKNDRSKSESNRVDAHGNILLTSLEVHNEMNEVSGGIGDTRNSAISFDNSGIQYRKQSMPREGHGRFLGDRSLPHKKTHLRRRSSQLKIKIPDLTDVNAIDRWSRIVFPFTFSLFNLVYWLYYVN", "T1 sequence (P18507 40-475)": "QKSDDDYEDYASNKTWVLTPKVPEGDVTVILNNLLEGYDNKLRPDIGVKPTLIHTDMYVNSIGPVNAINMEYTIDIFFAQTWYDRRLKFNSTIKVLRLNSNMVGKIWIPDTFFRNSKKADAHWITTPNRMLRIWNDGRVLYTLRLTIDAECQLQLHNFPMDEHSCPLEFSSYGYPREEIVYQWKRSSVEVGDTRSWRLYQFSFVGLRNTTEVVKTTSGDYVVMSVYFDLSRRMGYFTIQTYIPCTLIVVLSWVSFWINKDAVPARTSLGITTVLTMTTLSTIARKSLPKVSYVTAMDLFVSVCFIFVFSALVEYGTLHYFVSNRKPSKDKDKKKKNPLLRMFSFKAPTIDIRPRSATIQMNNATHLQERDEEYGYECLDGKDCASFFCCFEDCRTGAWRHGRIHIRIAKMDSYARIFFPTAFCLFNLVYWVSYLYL", "test": "Two-electrode voltage clamp electrophysiology in Xenopus oocytes, potentiation of GABA EC20 response, α1", "assay_type": "cell-based", "conditions": "100 nM compound, read-out: Percentage of potentiation alpha1", "experimental": "Electrophysiology protocol: Oocytes were prepared from adult female Xenopus laevis frogs. cRNA encoding human α1, α2, α3, α5, β3 and γ2L GABAA receptor subunits was injected into the cytoplasm of stage 5 or 6 oocytes using the Robocyte Robot (Multi Channel Systems, Reutlingen, Germany). Two-electrode voltage clamp recordings were made in 96-well plates using the Robocyte Robot. Oocytes were impaled using recording heads with two glass electrodes containing 1.5 M potassium acetate and 0.5 M KCl and held at a membrane potential of −80 mV. Oocytes were continually perfused with a ND96 solution (96 mM NaCl, 2 mM KCl, 0.1 mM CaCl2, and 5 mM HEPES, pH 7.5) using a Gilson 222 XL Liquid Handler and Gilson Minipuls 3 Peristaltic Pump (Gilson Medical Electronics, Middleton, Wis., USA). The protocol consisted of three 20-s applications of GABA that gave a 20% of the maximum response (EC20: 60 μM) to allow for headroom to determine a baseline GABA response. To assess the potentiation, oocytes were first exposed to a single 1 μM chlordiazepoxide (CDP) as a potentiation standard. Oocytes with insufficient expression levels (currents below threshold) or insufficient γ2L subunit incorporation (judged by rapid desensitization upon GABA application, or by insufficient potentiation by CDP) were not included in analysis. Following this control application, a given oocyte was exposed to test compounds at 100 nM concentrations. Only one concentration of one compound was tested per oocyte. […] One skilled in the art will recognize that subtypes contribute to the effects of GABA-A modulators. Such that compounds favoring different subtypes can have different therapeutic effects. The magnitude of modulation, for example, partial modulators can influence the effects in vivo. “++” indicates a greater modulation that “+” so that at any given subtype “++” inducates a greater amount of modulation for that subtype. In some embodiments, modulation favoring alpha 1 relative to alpha2 and/or alpha 3 can have sedative hypnotic effects. In other embodiments, compounds with reduced selectivity of alpha 1 can express anxiolytic effects with less sedation. Compounds with selectivity for alpha 5 can have memory/cognition enhancing effects.", "units": {"activation at 0.1 µM": "%"}, "values": [{"smiles": "Cc1cc(Cl)nc(NCc2c(-c3ccc(F)cc3)nc3ccc(Cl)cn23)n1", "note": "[Compound 162, 4-chloro-N-((6-chloro-2-(4-fluorophenyl)imidazo[1,2-a]pyridin-3-yl)methyl)-6-methylpyrimidin-2-amine]", "activation at 0.1 µM": "10 to 50"}, {"smiles": "Clc1ccc(-c2nc3ccc(Cl)cn3c2Cc2cn[nH]n2)cc1", "note": "[Compound 227, 3-((2H-1,2,3-triazol-4-yl)methyl)-6-chloro-2-(4-chlorophenyl)imidazo[1,2-a]pyridine]", "activation at 0.1 µM": "≥ 50"}, {"smiles": "Cc1ccnc(NCc2c(-c3ccc(Cl)cc3)nc3ccccn23)n1", "note": "[Compound 157, [2-(4-Chloro-phenyl)-imidazo[1,2-a]pyridin-3-ylmethyl]-(4-methyl-pyrimidin-2-yl)-amine]", "activation at 0.1 µM": "10 to 50"}, {"smiles": "Cc1ccc(-c2nc3ccc(C)cn3c2CNc2nc(C)cc(Cl)n2)cc1", "note": "[Compound 147, 4-chloro-6-methyl-N-((6-methyl-2-p-tolylimidazo[1,2-a]pyridin-3-yl)methyl)pyrimidin-2-amine]", "activation at 0.1 µM": "≥ 50"}]}, {"test_system": "central benzodiazepine receptors", "test": "Central benzodiazepine receptor binding (test of Speth et al.)", "conditions": "1000 nM of the compound", "outline": "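Values are percent inhibition of central benzodiazepine receptor binding at 1000 nM compound (initial single-point screen at 1.0E-09, 1.0E-07 and 1.0E-05 M). Speth et al. binding test; nonspecific binding defined with excess unlabelled ligand and subtracted from total.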", "values": [{"smiles": "Cc1cc(Cl)nc(NCc2c(-c3ccc(F)cc3)nc3ccc(Cl)cn23)n1", "note": "[Compound 162, 4-chloro-N-((6-chloro-2-(4-fluorophenyl)imidazo[1,2-a]pyridin-3-yl)methyl)-6-methylpyrimidin-2-amine]", "% Inhibition at 1000 nM for CBZD": "++ (percentage of inhibition of central BZD site binding is greater than 80% in the presence of 1000 nM of the compound)"}, {"smiles": "Clc1ccc(-c2nc3ccc(Cl)cn3c2Cc2cn[nH]n2)cc1", "note": "[Compound 227, 3-((2H-1,2,3-triazol-4-yl)methyl)-6-chloro-2-(4-chlorophenyl)imidazo[1,2-a]pyridine]", "% Inhibition at 1000 nM for CBZD": "++ (percentage of inhibition of central BZD site binding is greater than 80% in the presence of 1000 nM of the compound)"}, {"smiles": "Cc1ccnc(NCc2c(-c3ccc(Cl)cc3)nc3ccccn23)n1", "note": "[Compound 157, [2-(4-Chloro-phenyl)-imidazo[1,2-a]pyridin-3-ylmethyl]-(4-methyl-pyrimidin-2-yl)-amine]", "% Inhibition at 1000 nM for CBZD": "++ (percentage of inhibition of central BZD site binding is greater than 80% in the presence of 1000 nM of the compound)"}, {"smiles": "Cc1ccc(-c2nc3ccc(C)cn3c2CNc2nc(C)cc(Cl)n2)cc1", "note": "[Compound 147, 4-chloro-6-methyl-N-((6-methyl-2-p-tolylimidazo[1,2-a]pyridin-3-yl)methyl)pyrimidin-2-amine]", "% Inhibition at 1000 nM for CBZD": "++ (percentage of inhibition of central BZD site binding is greater than 80% in the presence of 1000 nM of the compound)"}, {"smiles": "Cc1ccc(-c2nc3ccc(C)cn3c2Cn2ccsc2=S)cc1", "note": "[Compound 131, 3-((6-Methyl-2-p-tolylH-imidazo[1,2-a]pyridin-3-yl)methyl)thiazole-2(3H)-thione]", "% Inhibition at 1000 nM for CBZD": "++ (percentage of inhibition of central BZD site binding is greater than 80% in the presence of 1000 nM of the compound)"}, {"smiles": "c1ccc(-c2nc3ccccn3c2Cn2nccn2)cc1", "note": "[Compound 51, 3-((2H-1,2,3-triazol-2-yl)methyl)-2-phenylH-imidazo[1,2-a]pyridine]", "% Inhibition at 1000 nM for CBZD": "++ (percentage of inhibition of central BZD site binding is greater than 80% in the presence of 1000 nM of the compound)"}, {"smiles": "Cc1ccc(-c2nc3ccc(C)cn3c2CNc2nccc(C)n2)cc1", "note": "[Compound 143, 4-methyl-N-((6-methyl-2-p-tolylH-imidazo[1,2-a]pyridin-3-yl)methyl)pyrimidin-2-amine]", "% Inhibition at 1000 nM for CBZD": "++ (percentage of inhibition of central BZD site binding is greater than 80% in the presence of 1000 nM of the compound)"}, {"smiles": "Clc1ccc(-c2nc3ccccn3c2Cn2cnnn2)cc1", "note": "[Compound 41, 3-((1H-tetrazol-1-yl)methyl)-2-(4-chlorophenyl)imidazo[1,2-a]pyridine]", "% Inhibition at 1000 nM for CBZD": "++ (percentage of inhibition of central BZD site binding is greater than 80% in the presence of 1000 nM of the compound)"}, {"smiles": "CNC(=O)c1cc(C)n(Cc2c(-c3ccc(Cl)cc3)nc3ccccn23)n1", "note": "[Compound 80, 1-((2-(4-chlorophenyl)imidazo[1,2-a]pyridin-3-yl)methyl)-N,5-dimethyl-1H-pyrazole-3-carboxamide]", "% Inhibition at 1000 nM for CBZD": "++ (percentage of inhibition of central BZD site binding is greater than 80% in the presence of 1000 nM of the compound)"}, {"smiles": "CCOC(=O)c1nccn1Cc1c(-c2ccc(Cl)cc2)nc2ccccn12", "note": "[Compound 26, Ethyl 1-((2-(4-chlorophenyl)H-imidazo[1,2-a]pyridin-3-yl)methyl)-1H-imidazole-2-carboxylate]", "% Inhibition at 1000 nM for CBZD": "++ (percentage of inhibition of central BZD site binding is greater than 80% in the presence of 1000 nM of the compound)"}, {"smiles": "CC(C)c1nnc(Cc2c(-c3ccccc3)nc3ccc(Cl)cn23)[nH]1", "note": "[Compound 232, 6-chloro-3-((5-isopropyl-4H-1,2,4-triazol-3-yl)methyl)-2-phenylimidazo[1,2-a]pyridine]", "% Inhibition at 1000 nM for CBZD": "++ (percentage of inhibition of central BZD site binding is greater than 80% in the presence of 1000 nM of the compound)"}, {"smiles": "Cc1ccc(-c2nc3ccc(C)cn3c2CNc2ncc[nH]2)cc1", "note": "[Compound 153, N-((6-methyl-2-p-tolyl-H-imidazo[1,2-a]pyridin-3-yl)methyl)-1H-imidazol-2-amine]", "% Inhibition at 1000 nM for CBZD": "++ (percentage of inhibition of central BZD site binding is greater than 80% in the presence of 1000 nM of the compound)"}, {"smiles": "COC(=O)c1ncn(Cc2c(-c3ccc(C)cc3)nc3ccc(C)cn23)n1", "note": "[Compound 11, 1-(6-Methyl-2-p-tolyl-imidazo[1,2-a]pyridin-3-ylmethyl)-1H-[1,2,4]triazole-3-carboxylic acid methyl ester]", "% Inhibition at 1000 nM for CBZD": "++ (percentage of inhibition of central BZD site binding is greater than 80% in the presence of 1000 nM of the compound)"}, {"smiles": "CN(C)C(=O)c1ncnn1Cc1c(-c2ccc(Cl)cc2)nc2ccccn12", "note": "[Compound 74, 1-((2-(4-chlorophenyl)imidazo[1,2-a]pyridin-3-yl)methyl)-N,N-dimethyl-1H-1,2,4-triazole-5-carboxamide]", "% Inhibition at 1000 nM for CBZD": "++ (percentage of inhibition of central BZD site binding is greater than 80% in the presence of 1000 nM of the compound)"}, {"smiles": "Cc1ccc(-c2nc3ccc(C)cn3c2Cn2ccccc2=O)cc1", "note": "[Compound 96, 1-((6-methyl-2-p-tolyl-H-imidazo[1,2-a]pyridin-3-yl)methyl)pyridin-2(1H)-one]", "% Inhibition at 1000 nM for CBZD": "++ (percentage of inhibition of central BZD site binding is greater than 80% in the presence of 1000 nM of the compound)"}, {"smiles": "Cn1ccnc1Cc1c(-c2ccc(F)cc2)nc2ccc(F)cn12", "note": "[Compound 199, 6-fluoro-2-(4-fluorophenyl)-3-((1-methyl-1H-imidazol-2-yl)methyl)imidazo[1,2-a]pyridine]", "% Inhibition at 1000 nM for CBZD": "++ (percentage of inhibition of central BZD site binding is greater than 80% in the presence of 1000 nM of the compound)"}, {"smiles": "COC(=O)c1ncn(Cc2c(-c3ccccc3)nc3ccc(Cl)cn23)n1", "note": "[Compound 45, 1-(6-Chloro-2-phenyl-imidazo[1,2-a]pyridin-3-ylmethyl)-1H-[1,2,4]triazole-3-carboxylic acid methyl ester]", "% Inhibition at 1000 nM for CBZD": "+ (percentage of inhibition of central BZD site binding is greater than 50% but less than 80% in the presence of 1000 nM of the compound)"}, {"smiles": "Cc1ccc(-c2nc3ccc(C)cn3c2Cn2cnc3ccccc32)cc1", "note": "[Compound 16, 1-((6-Methyl-2-p-tolyl-H-imidazo[1,2-a]pyridin-3-yl)methyl)-1H-benzo[d]imidazole]", "% Inhibition at 1000 nM for CBZD": "++ (percentage of inhibition of central BZD site binding is greater than 80% in the presence of 1000 nM of the compound)"}, {"smiles": "NC(=O)c1nccn1Cc1c(-c2ccc(Cl)cc2)nc2cccnn12", "note": "[Compound 87, 1-((2-(4-chlorophenyl)imidazo[1,2-b]pyridazin-3-yl)methyl)-1H-imidazole-2-carboxamide]", "% Inhibition at 1000 nM for CBZD": "+ (percentage of inhibition of central BZD site binding is greater than 50% but less than 80% in the presence of 1000 nM of the compound)"}, {"smiles": "Clc1ccc(-c2nc3ccc(Cl)cn3c2Cn2cncn2)cc1", "note": "[Compound 18, 3-((1H-1,2,4-triazol-1-yl)methyl)-6-chloro-2-(4-chlorophenyl)H-imidazo[1,2-a]pyridine]", "% Inhibition at 1000 nM for CBZD": "++ (percentage of inhibition of central BZD site binding is greater than 80% in the presence of 1000 nM of the compound)"}, {"smiles": "O=c1ccc(Cl)cn1Cc1c(-c2ccc(Cl)cc2)nc2ccc(Cl)cn12", "note": "[Compound 108, 5-chloro-1-((6-chloro-2-(4-chlorophenyl)H-imidazo[1,2-a]pyridin-3-yl)methyl)pyridin-2(1H)-one]", "% Inhibition at 1000 nM for CBZD": "++ (percentage of inhibition of central BZD site binding is greater than 80% in the presence of 1000 nM of the compound)"}, {"smiles": "Cc1ccc(-c2nc3ccc(C)cn3c2CNc2ccccn2)cc1", "note": "[Compound 140, N-((6-methyl-2-p-tolylH-imidazo[1,2-a]pyridin-3-yl)methyl)pyridin-2-amine]", "% Inhibition at 1000 nM for CBZD": "++ (percentage of inhibition of central BZD site binding is greater than 80% in the presence of 1000 nM of the compound)"}]}]}
